# Data reported in US6613308B2, “Pulmonary delivery in treating disorders of the central nervous system” (Advanced Inhalation Research, Inc., priority 2000, dated 2003).
# Columns and labels:
# PZT-induced seizures = assay: PZT-induced seizures; type: in vivo, rats; conditions: for Duration of Seizure / Minutes to Seizure Onset: mean
# Experimental: The pharmacodynamic effects of a pulmonary versus oral benzodiazepine-type drug, alprazolam, were evaluated using a standard pre-clinical test of anxiolytic drug action. In this test, the chemical convulsant pentylenetetrazol (PZT), which is known to produce well characterized seizures in rodents, was administered to rats. The test was selected based on its sensitivity to a wide range of benzodiazapines and to the fact that the relative potency of benzodiazapines in blocking PZT-induced seizures is believed to be similar to the magnitude of their anti-anxiety effects in humans. The ability of alprazolam to block PZT-induced seizures was used as a measure of the pharmacodynamic effects of alprazolm.
# Determinations of the […] activity of alprazolam were made following oral gavage, or insufflation directly into the lungs of rats. Alprazolam (Sigma, St. Louis, Mo. was administered via aerodynamically light particles which included 10% alprazolam, 20% sodium citrate, 10% calcium chloride and 60% DPPC. For oral delivery, alprazolam was suspended in light corn syrup and administered via gavage. For pulmonary delivery, an insufflation technique was used. Animals were briefly anesthetized with isoflurane (1-2%) and a laryngoscope was used to visualize the epiglottis and the blunt-tip insufflation device (PennCentury Insufflation powder delivery device) was inserted into the airway. A bolus of air (3 cc), from an attached syringe, was used to deliver the pre-loaded powder from the chamber of the device into the animals' lungs. The doses for pulmonary delivery were 0 (blank particles that included 20% sodium citrate, 10% calcium chloride and 70% DPPC), 0.088, 0.175, or 0.35 mgs total alprazolam, and the doses for oral delivery were 0, 0.088, 0.175, 0.35, 0.70, 1.75, or 3.50 mgs total alprazolam. These doses were chosen to encompass the range of effective and ineffective oral doses. Accordingly, any potential benefits of pulmonary delivery could be directly compared to the oral dose response curve for alprazolam.
# For both oral and pulmonary delivery, alprazolam was administered either 10 or 30 minutes prior to PZT, obtained from Sigma, St. Louis, Mo., (60 mg/kg given i.p). To control for potential interactions between alprazolam and isoflurane, all animals receiving oral alprazolam also received isoflurane immediately following dosing as described above. For all animals, the number of seizures as well as the time to seizure onset and seizure duration was recorded for 45 minutes after administration of PZT.
# [1] = 14C levels in plasma, brain and peripheral organs after 14C-carboplatin IV or pulmonary administration; type: in vivo, rat; conditions: 10 minutes; for Plasma Levels of 14C: 100 μCi/8 mg
# Experimental: Blood, brain and peripheral organ levels of ^14C were determined following administration of ^14C-Carboplatin via either IV or pulmonary administration. A total of 100 μCi of radiolabeled carboplatin was mixed with unlabelled carboplatin to provide a total drug concentration of 8 mg/rat. All animals were anesthetized using ketamine. For IV administration, carboplatin was administered via a previously placed femoral cannula. For pulmonary administration, a 24 gauge catheter was placed within the trachea and the carboplatin was administered using a Harvard ventilator over a 3-5 second period using a tidal volume of 1 ml and 100 strokes/minutes. Blood samples were taken at 10 minutes post drug administration (N=6 per time point for each group). Brains were removed and dissected into various regions including the olfactory, frontal, and occipital cortices, the hippocampus, striatum, and cerebellum. Peripheral organs included the kidneys, spleen, heart, testes, and muscle. All samples were then processed for determinations of ^14C levels using scintillation.
# Absolute plasma levels of ^14C were higher following IV administration. […] This point is clearer when the ratio of brain to blood ^14C levels was calculated. […] Absolute levels of ^14C in peripheral tissue was also lower following pulmonary administration (92% lower relative to IV). In contrast to the large differences in selectivity seen in the brain, the relative peripheral selectivity (derived from dividing the levels of radioactivity in peripheral organs by that in the blood) was only 47% higher in the pulmonary group.
# [2] = oral, 10 minutes prior to PZT, 0.35 mgs
# [3] = oral, 10 minutes prior to PZT, 0.70 mgs
# [4] = oral, 10 minutes prior to PZT, 1.75 mgs
# [5] = oral, 10 minutes prior to PZT, 3.50 mgs
# [6] = oral, 30 minutes prior to PZT, 0.088 mgs
# [7] = oral, 30 minutes prior to PZT, 0.175 mgs
# [8] = oral, 30 minutes prior to PZT, 0.35 mgs
# [9] = pulmonary, 10 minutes prior to PZT, 0.088 mgs
# [10] = pulmonary, 10 minutes prior to PZT, 0.175 mgs
# [11] = pulmonary, 10 minutes prior to PZT, 0.35 mgs
# [12] = pulmonary, 10 minutes prior to PZT, 0.35 mgs, listed as alprazolam
# [13] = pulmonary, 30 minutes prior to PZT, 0.088 mgs
# [14] = pulmonary, 30 minutes prior to PZT, 0.175 mgs
# [15] = pulmonary, 30 minutes prior to PZT, 0.35 mgs
compound,measurement,setting,value
"Cc1nnc2n1-c1ccc(Cl)cc1C(c1ccccc1)=NC2 [Alprazolam, alprazolam]",pulmonary dose lower than maximally effective oral dose for comparable decrease in seizure duration,"PZT-induced seizures; 10 minutes prior to PZT, 0.088 vs 3.50 mgs",~40 fold
same,oral dose relative to pulmonary dose for comparable time to seizure onset,"PZT-induced seizures; 10 minutes prior to PZT, 0.35 vs 3.50 mgs",10 times
same,oral dose required relative to pulmonary dose for comparable seizure suppression,"PZT-induced seizures; 10 minutes prior to PZT, 3.50 vs 0.35 mgs",approximately 10 times
same,lowest oral dose that significantly increases time to seizure onset,"PZT-induced seizures; oral, 10 minutes prior to PZT",1.75 mgs
same,maximally effective oral dose on seizure duration,"PZT-induced seizures; oral, 10 minutes prior to PZT",3.50 mgs
same,Animals With Seizures,PZT-induced seizures; [2],13/15
same,Animals With Seizures (%),PZT-induced seizures; [2],(87%)
same,Duration of Seizure,PZT-induced seizures; [2],88.0 s
same,Minutes to Seizure Onset,PZT-induced seizures; [2],11.49 min
same,Animals With Seizures,PZT-induced seizures; [3],13/15
same,Animals With Seizures (%),PZT-induced seizures; [3],(87%)
same,Duration of Seizure,PZT-induced seizures; [3],62.07 s
same,Minutes to Seizure Onset,PZT-induced seizures; [3],9.24 min
same,Animals With Seizures,PZT-induced seizures; [4],7/15
same,Animals With Seizures (%),PZT-induced seizures; [4],(47%)
same,Duration of Seizure,PZT-induced seizures; [4],14.47 s
same,Minutes to Seizure Onset,PZT-induced seizures; [4],29.03 min
same,Animals With Seizures,PZT-induced seizures; [5],2/14
same,Animals With Seizures (%),PZT-induced seizures; [5],(14%)
same,Duration of Seizure,PZT-induced seizures; [5],5.40 s
same,Minutes to Seizure Onset,PZT-induced seizures; [5],43.37 min
same,Animals With Seizures,PZT-induced seizures; [6],11/15
same,Animals With Seizures (%),PZT-induced seizures; [6],(73%)
same,Duration of Seizure,PZT-induced seizures; [6],46.0 s
same,Minutes to Seizure Onset,PZT-induced seizures; [6],18.38 min
same,Animals With Seizures,PZT-induced seizures; [7],7/15
same,Animals With Seizures (%),PZT-induced seizures; [7],(47%)
same,Duration of Seizure,PZT-induced seizures; [7],15.0 s
same,Minutes to Seizure Onset,PZT-induced seizures; [7],33.10 min
same,Animals With Seizures,PZT-induced seizures; [8],4/15
same,Animals With Seizures (%),PZT-induced seizures; [8],(27%)
same,Animals With Seizures (%),"PZT-induced seizures; oral, 30 minutes prior to PZT, 0.35 mgs, listed as alprazolam",27%
same,Duration of Seizure,PZT-induced seizures; [8],19.0 s
same,Minutes to Seizure Onset,PZT-induced seizures; [8],37.58 min
same,Animals With Seizures,PZT-induced seizures; [9],5/15
same,Animals With Seizures (%),PZT-induced seizures; [9],(33%)
same,Animals With Seizures (%),"PZT-induced seizures; pulmonary, 10 minutes prior to PZT, 0.088 mgs, listed as alprazolam",33%
same,Duration of Seizure,PZT-induced seizures; [9],7.0 s
same,Minutes to Seizure Onset,PZT-induced seizures; [9],36.71 min
same,Animals With Seizures,PZT-induced seizures; [10],3/15
same,Animals With Seizures (%),PZT-induced seizures; [10],(20%)
same,Duration of Seizure,PZT-induced seizures; [10],8.0 s
same,Minutes to Seizure Onset,PZT-induced seizures; [10],38.61 min
same,Animals With Seizures,PZT-induced seizures; [11],2/15
same,Animals With Seizures (%),PZT-induced seizures; [11],(13%)
same,Animals With Seizures (%),PZT-induced seizures; [12],13%
same,Duration of Seizure,PZT-induced seizures; [11],4.0 s
same,Minutes to Seizure Onset,PZT-induced seizures; [11],42.28 min
same,Minutes to Seizure Onset,PZT-induced seizures; [12],> 42 min
same,Animals With Seizures,PZT-induced seizures; [13],9/15
same,Animals With Seizures (%),PZT-induced seizures; [13],(60%)
same,Duration of Seizure,PZT-induced seizures; [13],82.67 s
same,Minutes to Seizure Onset,PZT-induced seizures; [13],18.47 min
same,Animals With Seizures,PZT-induced seizures; [14],5/15
same,Animals With Seizures (%),PZT-induced seizures; [14],(33%)
same,Duration of Seizure,PZT-induced seizures; [14],16.07 s
same,Minutes to Seizure Onset,PZT-induced seizures; [14],34.05 min
same,Animals With Seizures,PZT-induced seizures; [15],2/15
same,Animals With Seizures (%),PZT-induced seizures; [15],(13%)
same,Duration of Seizure,PZT-induced seizures; [15],2.69 s
same,Minutes to Seizure Onset,PZT-induced seizures; [15],41.98 min
N.N.O=C([O-])C1(C(=O)[O-])CCC1.[Pt+2] [carboplatin],Absolute Brain Levels,[1]; IV,29.47 nCi/gram
same,"Absolute Tissue Levels (Peripheral Organs), excludes kidney",[1]; IV,0.03
same,Relative Brain Selectivity (Brain/Blood),[1]; IV,0.03
same,"Relative Peripheral Selectivity (Peripheral/Blood), excludes kidney",[1]; IV,0.44
same,Plasma Levels of 14C,[1]; IV,994.348
same,Absolute Tissue Levels (Peripheral Organs) (% Difference),[1]; Lung vs IV,+2833%
same,Plasma Levels (% Difference),[1]; Lung vs IV,−89.72%
same,Absolute Brain Levels,[1]; Lung,27.29 nCi/gram
same,"Absolute Tissue Levels (Peripheral Organs), excludes kidney",[1]; Lung,0.88
same,Relative Brain Selectivity (Brain/Blood),[1]; Lung,0.88
same,"Relative Peripheral Selectivity (Peripheral/Blood), excludes kidney",[1]; Lung,0.65
same,Plasma Levels of 14C,[1]; Lung,102.215
same,"Absolute levels of 14C in peripheral tissue, lower relative to IV",[1]; pulmonary vs IV,92%
